We go through two molecules from US11850213B2, “Ophthalmic compositions of rifamycins and uses thereof” (AMD THERAPEUTICS LLC, priority 2014, dated 2023).

≈ marks a conversion by molar mass, not a printed value. Like-named read-outs stand apart in the source and are kept apart here.

A short description of series [1]: Dose-response study, retina exposure after 0.25% and 0.5% rifampicin eye drops, LC/MS. Format: in vivo, Sprague-Dawley rats. To be noted: male, Sprague-Dawley, rat, topical. On the procedure: 15 microL of eye drop formulations which are presented as Example 1A and 6A listed in Table 1 and Table 2, respectively, were used to dose the compound to a single eye of a rat. […] In 1 hr after the eye drop application, retina tissues were extracted from the rats under a dissection microscope. In addition, “Non-treatment” negative control was taken, and retina was extracted from a single rat without any treatment. Retinas were placed in a 1.5 ml microcentrifuge tubes (1 retina/tube), and they were extensively washed by DPBS. After the washing procedure, retina tissue in a microcentrifuge tube was frozen in dry ice, and it was stored for quantification by LC/MS analysis.

Series [2] is described as follows: Retina exposure of rifampicin after subcutaneous injection, LC/MS. Format: in vivo, Sprague-Dawley rats. The conditions noted are these: male, Sprague-Dawley, rat, SC injection 20 mg/Kg (Example 6A), n = 4. The protocol: At time points of 1 hr, 3 hr, and 7 hr after the SC injection, retina tissues were extracted from the rats under a dissection microscope. In addition, “Non-treatment” negative control was taken, and retina was extracted from two rats without any treatment. Retinas were placed in a 1.5 ml microcentrifuge tubes (1 retina/tube), and they were extensively washed by DPBS. After the washing procedure, retina tissue in a microcentrifuge tube was frozen in dry ice, and it was stored for quantification by LC/MS analysis. […] Amounts detected in retina by the SC injection were equivalent to those delivered by the eye drop application (See Table 3).

Series [3] in a line: PK study, retina exposure after 0.25% rifampicin eye drop, LC/MS. The class given is in vivo, Sprague-Dawley rats. The conditions noted are these: male, Sprague-Dawley, 37.5 micro gram, rat. The protocol:
15 microL of an eye drop formulation which is presented as Example 1A listed in Table 1 was used to dose the compound to a single eye of a rat. […] At time points of 1 hr, 3 hr, and 7 hr after the eye drop application, retina tissues were extracted from the rats under a dissection microscope. In addition, “Non-treatment” negative control was taken, and retina was extracted from a single rat without any treatment. Retinas were placed in a 1.5 ml microcentrifuge tubes (1 retina/tube), and they were extensively washed by DPBS. After the washing procedure, retina tissue in a microcentrifuge tube was frozen in dry ice, and it was stored for quantification by LC/MS analysis.

Series [4] in a line: Solubility of AMD101 in H2O. Format: physicochemical. The conditions noted are these: water. On the procedure:
In H2O, the AMD101 can dissolve at approximately 1.4 mg/ml only. However, the concentration was increased as provided herein employing suitable excipients. Those formulations are stable for weeks.

Series [5] in a line: Retina exposure of rifampicin after topical eye drops (3 or 10 drops), LC/MS. To be noted: Rat, 0.25%. The class given is in vivo, Sprague-Dawley rats. On the procedure: The remaining two rats received the same applications, but 10 drops, to each eye under isoflurane sedation. A single drop contained 5 micro L of the formulation, and applications of each drop had 30 min interval. After the eye drop application, retinas were extracted under a dissection microscope. In addition, “Non-treatment” negative control was taken, and retina was extracted from two rats without any treatment. Retinas were placed in a 1.5 ml microcentrifuge tubes (1 retina/tube), and they were extensively washed by DPBS. After the washing procedure, retina tissue in a microcentrifuge tube was frozen in dry ice, and it was stored for quantification by LC/MS analysis.

The conditions of series [6]: Rabbit, 0.5% 50 microL, 250 micro g, Sigurdsson et al (2007); cited from earlier work.

For `CO[C@H]1/C=C/O[C@@]2(C)Oc3c(C)c(O)c4c(O)c(c(/C=N/N5CCN(C)CC5)c(O)c4c3C2=O)NC(=O)/C(C)=C\C=C\[C@H](C)[C@H](O)[C@@H](C)[C@@H](O)[C@@H](C)[C@H](OC(C)=O)[C@@H]1C` [Rifampicin], the concentration at 1 hr in series [1] (37.5 micro gram) amounted to 1580 ng/g; in series [1] (75 micro gram) it was 6070 ng/g; in series [2] (1 hr), 2660 ng/g; in series [3] (topical, 0.25% eye drop 15 microL (Example 1A), 1 hr, n = 4) it was 1580 ng/g. In addition, the concentration at 3 hr worked out at 3860 ng/g in series [2] (3 hr) and 1150 ng/g in series [3] (topical, 0.25% eye drop 15 microL (Example 1A), 3 hr, n = 4). Also, the concentration at 7 hr in series [2] (7 hr) worked out at 2520 ng/g; in series [3] (topical, 0.25% eye drop 15 microL (Example 1A), 7 hr, n = 4) it was 104 ng/g. Further, in series [3] (topical or ocular, 0.25% eye drop 15 microL), the Tmax is about 1 h. In series [4], this molecule yielded a solubility of about 1400 µg/mL (≈ 1700 µM). For the same molecule, the “Drug amount detected in retina” value in series [5] (3 drops (15 microL, 37.5 micro g)) was ~1,288 ng/g retina ng/g retina tissue; in series [5] (10 drops (50 microL, 125 micro g)) it was ~2,939 ng/g retina ng/g retina tissue.

As for `C[C@@H]1C[C@H]2[C@@H]3CCC4=CC(=O)C=C[C@]4(C)[C@@]3(F)[C@@H](O)C[C@]2(C)[C@@]1(O)C(=O)CO` [Dexamethasone], the “Drug amount detected in retina” value in series [6] was ~33 ng/g retina ng/g retina tissue.
